Results published in patent publication US11779582B2, “Composition for preventing or treating metastatic ovarian cancer, endometrial cancer or breast cancer” (LEMONEX INC., priority 2017, dated 2023).

Assays:
Assay type in all cases: cell-based
[1] = test system: HEC1B endometrial cancer cell line (3D sphere culture); assay: morphological analysis and crystal violet staining, 3D sphere culture
Experimental: (§1) With respect to the cancer cell lines listed in Table 1 below, synergistic effects of paclitaxel and BGJ398 were further examined. According to the same procedures as described in the previous examples, each cell line was divided and cultured by 2D monolayer culture and 3D sphere culture, respectively. Then, a change due to BGJ398 administration was analyzed through morphological analysis and crystal violet staining assay. All cell lines were purchased from ATCC and used in the present experiments, and detailed information thereof are shown in Table 3 below.
(§2) With respect to the cancer cell lines listed in Table 2 below, synergistic effects of paclitaxel and BGJ398 were further examined. According to the same procedures as described in the previous examples, each cell line was divided and cultured by 2D monolayer culture and 3D sphere culture, respectively. Then, a change due to administration of BGJ398 alone or in combination with paclitaxel was analyzed through morphological analysis.

[2] = test system: Hs578T breast cancer cell line (3D sphere culture); assay: as above
Experimental: as §1, §2

[3] = test system: AKT phosphorylation and PARP cleavage in SKOV3-TR ovarian cancer cells; assay: PathScan Intracellular Signaling Array Kit; conditions: BGJ398 in combination with paclitaxel (FIG. 26)
[4] = test system: monolayer cultured SKOV3ip1 ovarian cancer cells; assay: crystal violet cell viability, 2D monolayer culture
Experimental: 2D monolayer culture was implemented in the following manner: cells were cultured at 37° C., 5% CO2 humidified atmosphere using RPMI 1640 medium (Corning, NY, USA) supplemented with 10% fetal bovine serum (Gibco, NY, USA) and 10 U/ml penicillin/streptomycin.
Crystal violet staining was implemented to determine the cell viability in the monolayer cultured cell model and sphere cultured cell model. In order to implement the crystal violet staining in the monolayer culture model, SKOV3ip1 cells (5×10^4) were dispensed in commercial 24-well plates and incubated overnight. Thereafter, the drug was dispensed with a desired concentration for experiment into each well, followed by further incubation for 72 hours. 300 μl of 0.2% crystal violet solution was added to each well, followed by further incubation for 20 minutes while gently stirring the same. The stained cells were washed with distilled water until a clean background is observed. For assessment using a colorimeter, the crystal violet dye was extracted with 1% SDS/PBS and absorbance was measured at 570 nm wavelength by EMax PLUS microplate reader (Molecular Device, USA).
(§3) The monolayer cultured or sphere cultured SKOV3ip1 cells were treated with the tyrosine kinase inhibitor and paclitaxel for 72 hours, the cell viability was determined by the crystal violet colorimeter, and results thereof are shown in FIG. 3.

[5] = test system: sphere cultured SKOV3ip1 ovarian cancer cells; assay: crystal violet cell viability, 3D sphere culture
Experimental: For 3D sphere culture, SKOV3ip1 cells (1×10^6) were dispensed on ultra-low adherent 6-well plate (Corning NY, USA), and then, cultured in 5% CO2 incubator using RPMI 1640 medium supplemented with 10% fetal bovine serum (Gibco, NY, USA) and 10 U/ml penicillin/streptomycin (Gibco).
In order to assess the cell viability in the sphere cultured cells, the SKOV3ip1 cells (5×10^4) were dispensed on the super-low adherent 24-well plate and cultured overnight. The cells were harvested from each well and the commercial 24-well plate was moved, followed by further incubation for 12 hours. The adhered and visualized cells were stained with 0.2% crystal violet solution for 20 minutes while gently agitating the same. The stained cells were washed with distilled water until a clean background is observed. For assessment using a colorimeter, the crystal violet dye was extracted with 1% SDS/PBS and absorbance was measured at 570 nm wavelength by EMax PLUS microplate reader (Molecular Device, USA).
as §3
Since the cell survival of the sphere cultured SKOV3ip1 cells is inhibited by BGJ398 treatment, whether such cell survival inhibition is intermediated through JAK/STAT3 signaling pathway was further examined. For this purpose, the selective JAK tyrosine kinase inhibitor AG490 was used at different concentrations of 3.125 to 50 μM in order to treat the monolayer cultured or sphere cultured SKOV3ip1 cells, and after 72 hours, whether it affects the cell viability and AKT and STAT3 activation was examined through crystal violet staining and immunostaining assay, and results thereof are shown in FIG. 7. Actin was used as a loading control group.
Under this ground, when administering BGJ398 in combination with paclitaxel typically used as the existing primary anticancer drug for ovarian cancer, whether paclitaxel resistance of the sphere cultured cells is overcome and improved was determined.

[6] = test system: SKOV3-TR ovarian cancer cells; assay: microscopic analysis of cell shape change due to cytotoxicity
Experimental: (§4) According to the same procedures as described in the previous examples, each cell line was divided and cultured by 2D monolayer culture and 3D sphere culture, respectively. Then, a change due to administration of BGJ398 alone or in combination with paclitaxel was analyzed through morphological analysis and crystal violet staining assay.
FIG. 20 illustrates a change in cell shape due to cytotoxicity under microscopic analysis, when paclitaxel alone, BGJ398 alone or in combination with paclitaxel was administered to SKOV3-TR ovarian cancer cells.

[7] = test system: SKOV3-TR ovarian cancer cells; assay: FACS assay of DNA content (propidium iodide), Sub-G1
Experimental: More particularly, the degree of cell apoptosis can be confirmed when DNA content in the cell is treated by propidium iodide (PI) staining and is assessed by FACS. If cell apoptosis occurs, genes in the cells are disrupted and Sub-Gi region below G1 is increased.
FIG. 23 graphically illustrates FACS results, which were divided by a cell cycle in the same experiments described above. Referring to this figure, it can be seen that the treatment using 2.5 μM BGJ398 in combination with 50 nM paclitaxel increases Gub-G1 cells in SKOV-TR cells by about 2.5 times, compared to 50 nM paclitaxel alone, thereby improving anticancer activity.

[8] = test system: SKOV3-TR ovarian cancer cells; assay: crystal violet cell viability in paclitaxel-resistant cells
Experimental: SKOV3-TR cell line was offered from Sood AK in MD-Anderson Cancer Center (USA) and then used in the present experiments.
Paclitaxel resistance of each of SKOV3 and SKOV3-TR was determined by measuring the cell viability through crystal violet colorimetric assay. This experiment was implemented three times and a difference in results thereof was estimated by student's t-test.
as §4

Compound: CCN1CCN(c2ccc(Nc3cc(N(C)C(=O)Nc4c(Cl)c(OC)cc(OC)c4Cl)ncn3)cc2)CC1 [BGJ398, 3-(2,6-dichloro-3,5-dimethoxyphenyl)-1-[6-[4-(4-ethylpiperazin-1yl)anilino]pyrimidin-4-yl]-1-methylurea]
- cytotoxicity, cell sphere morphology ([1]; 3D sphere culture HEC1B, BGJ398 alone or in combination with paclitaxel): cell spheres are collapsed
- cell apoptosis ([1]; sphere cultured HEC1B, BGJ398 alone): cell apoptosis can be found
- cytotoxicity, cell sphere morphology ([2]; 3D sphere culture Hs578T, BGJ398 alone or in combination with paclitaxel): cell spheres are collapsed
- cell apoptosis ([2]; sphere cultured Hs578T, BGJ398 alone): cell apoptosis can be found
- cleaved PARP [3]: increasing the cleaved PARP
- phosphorylation of AKT at serine 473 [3]: phosphoylation of AKT at serine 473 is reduced
- cell viability ([4]; monolayer cultured SKOV3ip1, 72 hours, different concentrations, crystal violet colorimeter (FIG. 3)): not effected
- cytotoxicity ([4]; monolayer cultured SKOV3ip1, BGJ398 concentration increased to 5 μM): cytotoxicity was not revealed
- paclitaxel sensitivity ([5]; 3D cultured SKOV3ip1, 1.25 and 5 μM BGJ398 with paclitaxel vs BGJ398 untreated group): increased paclitaxel sensitivity in a dose-dependent manner
- cytotoxicity ([5]; 3D sphere cultured SKOV3ip1, 1 μM BGJ398, Day 3): showed cytotoxicity
- cell viability ([5]; sphere cultured SKOV3ip1, 72 hours, different concentrations, crystal violet colorimeter (FIG. 3)): reduced the cell viability in a dose-dependent manner
- cell apoptosis ([5]; sphere cultured SKOV3ip1, paclitaxel in combination with BGJ398 vs paclitaxel alone, 72 hours (FIG. 8)): higher cell apoptosis than the cells treated with paclitaxel alone
- cytotoxicity and morphological change ([6]; 2.5 μM BGJ398 in combination with 50 nM paclitaxel (FIG. 20)): a detachment phenomenon due to cytotoxicity and formation of cells in irregular shapes
- cytotoxicity and morphological change ([6]; single agent: 2.5 μM BGJ398 or 50 nM paclitaxel (FIG. 20)): negligible cytotoxicity and no morphological change
- increase of Sub-G1 cells ([7]; 2.5 μM BGJ398 in combination with 50 nM paclitaxel, compared to 50 nM paclitaxel alone (FIG. 23)): about 2.5 times
- apoptotic cells (region below G1, Sub-G1) ([7]; BGJ398 in combination with paclitaxel (FIG. 22)): the number of apoptotic cells is increased
- anticancer activity ([8]; BGJ398 at increasing concentration in combination with paclitaxel (FIG. 18)): higher anticancer activity with the increased concentration of BGJ398
- anticancer activity ([8]; BGJ398 in combination with paclitaxel at increasing concentration (FIG. 19)): higher anticancer activity with the increased concentration of paclitaxel
- anticancer activity ([8]; BGJ398 in combination with paclitaxel vs paclitaxel alone (FIG. 16)): significantly improved
- anticancer activity ([8]; BGJ398 in combination with paclitaxel, 2D monolayer culture and 3D sphere culture (FIG. 17)): more improved
